Test results from the NIST ThermoML archive (doi:10.1021/je700152c).
Numbers after ± are expanded uncertainties.

Assay: molar heat capacity at saturation pressure; xn = mol fraction of the nth substance listed

CCCCn1cc[n+](C)c1.Cc1ccc(S(=O)(=O)[O-])cc1 [1-butyl-3-methylimidazolium tosylate] + O
molar heat capacity [J/K/mol]
Conditions	Crystal	Metastable crystal
78.15 K, x1 = 0.83	130.09 ± 1.6	–
78.19 K, x1 = 0.83	–	130.61 ± 1.6
80.13 K, x1 = 0.83	132.44 ± 1.6	–
80.17 K, x1 = 0.83	–	132.96 ± 1.6
81.97 K, x1 = 0.83	134.26 ± 1.6	–
82.01 K, x1 = 0.83	–	135.05 ± 1.6
83.83 K, x1 = 0.83	136.35 ± 1.6	–
83.86 K, x1 = 0.83	–	137.39 ± 1.6
85.69 K, x1 = 0.83	138.43 ± 1.6	–
85.72 K, x1 = 0.83	–	139.48 ± 1.6
87.56 K, x1 = 0.83	140.78 ± 1.6	–
87.59 K, x1 = 0.83	–	141.82 ± 1.6
89.44 K, x1 = 0.83	142.87 ± 1.6	–
89.46 K, x1 = 0.83	–	144.17 ± 1.6
91.33 K, x1 = 0.83	144.95 ± 1.6	–
91.34 K, x1 = 0.83	–	146.26 ± 1.6
93.22 K, x1 = 0.83	147.04 ± 1.6	–
93.23 K, x1 = 0.83	–	148.6 ± 1.6
95.13 K, x1 = 0.83	149.12 ± 1.6	150.69 ± 1.6
97.03 K, x1 = 0.83	–	153.03 ± 1.6
97.04 K, x1 = 0.83	150.95 ± 1.6	–
98.94 K, x1 = 0.83	–	155.38 ± 1.8
98.95 K, x1 = 0.83	153.03 ± 1.6	–
100.85 K, x1 = 0.83	–	157.47 ± 1.8
100.88 K, x1 = 0.83	155.12 ± 1.8	–
102.77 K, x1 = 0.83	–	159.81 ± 1.8
102.8 K, x1 = 0.83	156.94 ± 1.8	–
104.69 K, x1 = 0.83	–	161.9 ± 1.8
104.74 K, x1 = 0.83	159.03 ± 1.8	–
106.61 K, x1 = 0.83	–	164.24 ± 1.8
106.68 K, x1 = 0.83	161.12 ± 1.8	–
108.55 K, x1 = 0.83	–	166.33 ± 1.8
108.63 K, x1 = 0.83	163.2 ± 1.8	–
110.48 K, x1 = 0.83	–	168.68 ± 1.8
110.57 K, x1 = 0.83	165.03 ± 1.8	–
112.41 K, x1 = 0.83	–	170.76 ± 1.8
112.53 K, x1 = 0.83	167.11 ± 1.8	–
114.35 K, x1 = 0.83	–	173.11 ± 1.8
114.48 K, x1 = 0.83	169.2 ± 1.8	–
116.29 K, x1 = 0.83	–	175.19 ± 1.8
116.44 K, x1 = 0.83	171.02 ± 1.8	–
118.23 K, x1 = 0.83	–	177.54 ± 1.8
118.4 K, x1 = 0.83	173.11 ± 1.8	–
120.18 K, x1 = 0.83	–	179.89 ± 1.8
120.37 K, x1 = 0.83	175.19 ± 1.8	–
122.12 K, x1 = 0.83	–	182.23 ± 1.8
122.34 K, x1 = 0.83	177.02 ± 1.8	–
124.07 K, x1 = 0.83	–	184.32 ± 1.8
124.3 K, x1 = 0.83	179.1 ± 1.8	–
126.01 K, x1 = 0.83	–	186.66 ± 1.8
126.27 K, x1 = 0.83	181.19 ± 1.8	–
127.96 K, x1 = 0.83	–	189.01 ± 2.1
128.25 K, x1 = 0.83	183.28 ± 1.8	–
129.91 K, x1 = 0.83	–	191.36 ± 2.1
130.22 K, x1 = 0.83	185.36 ± 1.8	–
131.86 K, x1 = 0.83	–	193.7 ± 2.1
132.19 K, x1 = 0.83	187.45 ± 2.1	–
133.81 K, x1 = 0.83	–	196.05 ± 2.1
134.16 K, x1 = 0.83	189.79 ± 2.1	–
134.57 K, x1 = 0.3	80.15 ± 1.1	–
135.75 K, x1 = 0.83	–	198.4 ± 2.1
136.14 K, x1 = 0.83	192.14 ± 2.1	–
137.46 K, x1 = 0.3	81.31 ± 1.1	–
137.7 K, x1 = 0.83	–	201 ± 2.1
138.11 K, x1 = 0.83	194.75 ± 2.1	–
139.65 K, x1 = 0.83	–	203.09 ± 2.1
140.08 K, x1 = 0.83	197.88 ± 2.1	–
140.19 K, x1 = 0.3	82.47 ± 1.1	–
141.59 K, x1 = 0.83	–	205.7 ± 2.1
142.04 K, x1 = 0.83	201.53 ± 2.1	–
142.92 K, x1 = 0.3	83.64 ± 1.2	–
143.53 K, x1 = 0.83	–	208.04 ± 2.1
143.99 K, x1 = 0.83	206.74 ± 2.1	–
145.47 K, x1 = 0.83	–	210.65 ± 2.1
145.65 K, x1 = 0.3	84.8 ± 1.2	–
145.93 K, x1 = 0.83	214.56 ± 2.1	–
147.41 K, x1 = 0.83	–	213 ± 2.1
147.86 K, x1 = 0.83	217.43 ± 2.1	–
148.38 K, x1 = 0.3	85.96 ± 1.2	–
149.35 K, x1 = 0.83	–	215.34 ± 2.1
149.8 K, x1 = 0.83	211.69 ± 2.1	–
151.11 K, x1 = 0.3	87.13 ± 1.2	–
151.28 K, x1 = 0.83	–	217.95 ± 2.1
151.76 K, x1 = 0.83	207.26 ± 2.1	–
153.22 K, x1 = 0.83	–	220.3 ± 2.3
153.74 K, x1 = 0.83	206.22 ± 2.1	–
153.84 K, x1 = 0.3	88.29 ± 1.2	–
155.15 K, x1 = 0.83	–	222.64 ± 2.3
155.72 K, x1 = 0.83	206.74 ± 2.1	–
156.57 K, x1 = 0.3	89.45 ± 1.2	–
157.08 K, x1 = 0.83	–	224.99 ± 2.3
157.71 K, x1 = 0.83	207.78 ± 2.1	–
159.01 K, x1 = 0.83	–	227.6 ± 2.3
159.29 K, x1 = 0.3	90.61 ± 1.2	–
159.7 K, x1 = 0.83	209.09 ± 2.1	–
160.94 K, x1 = 0.83	–	229.94 ± 2.3
161.69 K, x1 = 0.83	210.65 ± 2.1	–
161.79 K, x1 = 0.37	108.28 ± 1.3	–
162.02 K, x1 = 0.3	91.78 ± 1.2	–
162.86 K, x1 = 0.83	–	232.29 ± 2.3
163.68 K, x1 = 0.83	212.47 ± 2.1	–
164.74 K, x1 = 0.3	92.94 ± 1.2	–
164.78 K, x1 = 0.83	–	234.63 ± 2.3
164.91 K, x1 = 0.37	109.92 ± 1.4	–
165.67 K, x1 = 0.83	214.3 ± 2.1	–
166.7 K, x1 = 0.83	–	236.72 ± 2.3
167.46 K, x1 = 0.3	94.21 ± 1.2	–
167.65 K, x1 = 0.83	215.86 ± 2.1	–
167.87 K, x1 = 0.37	111.44 ± 1.4	–
168.62 K, x1 = 0.83	–	239.07 ± 2.3
169.64 K, x1 = 0.83	217.69 ± 2.1	–
170.18 K, x1 = 0.3	95.37 ± 1.2	–
170.53 K, x1 = 0.83	–	240.89 ± 2.3
170.82 K, x1 = 0.37	112.95 ± 1.4	–
171.63 K, x1 = 0.83	219.51 ± 2.1	–
172.45 K, x1 = 0.83	–	243.24 ± 2.3
172.9 K, x1 = 0.3	96.64 ± 1.3	–
173.61 K, x1 = 0.83	221.34 ± 2.3	–
173.77 K, x1 = 0.37	114.59 ± 1.4	–
174.36 K, x1 = 0.83	–	245.32 ± 2.3
175.6 K, x1 = 0.83	223.42 ± 2.3	–
175.61 K, x1 = 0.3	97.91 ± 1.3	–
176.27 K, x1 = 0.83	–	247.15 ± 2.3
176.72 K, x1 = 0.37	116.23 ± 1.4	–
177.58 K, x1 = 0.83	224.99 ± 2.3	–
178.18 K, x1 = 0.83	–	248.97 ± 2.3
178.32 K, x1 = 0.3	99.28 ± 1.3	–
179.56 K, x1 = 0.83	227.07 ± 2.3	–
179.67 K, x1 = 0.37	118.38 ± 1.4	–
180.09 K, x1 = 0.83	–	250.8 ± 2.3
181.02 K, x1 = 0.3	101.4 ± 1.3	–
181.54 K, x1 = 0.83	228.9 ± 2.3	–
181.99 K, x1 = 0.83	–	252.62 ± 2.6
182.6 K, x1 = 0.37	121.41 ± 1.4	–
183.52 K, x1 = 0.83	230.72 ± 2.3	–
183.7 K, x1 = 0.3	104.68 ± 1.3	–
183.9 K, x1 = 0.83	–	254.19 ± 2.6
185.5 K, x1 = 0.37	126.71 ± 1.5	–
185.5 K, x1 = 0.83	232.81 ± 2.3	–
185.8 K, x1 = 0.83	–	256.01 ± 2.6
186.36 K, x1 = 0.3	107.53 ± 1.3	–
187.47 K, x1 = 0.83	234.9 ± 2.3	–
